# Laboratory results: ChEMBL document CHEMBL2021812, “Aryltriflates as a Neglected Moiety in Medicinal Chemistry: A Case Study from a Lead Optimization of CXCL8 Inhibitors” (ACS Med Chem Lett, 2011)
# Experiments:
# [1] = test system: Hepatocyte; assay: Drug metabolism in rat hepatocytes assessed as (S)-2-(4-(trifluoromethylsulfonyloxy)phenyl)propanoic acid level at 10 uM after 120 mins; assay type: ADME, cell-based; settings: 2 h
# [2] = Clearance in Sprague-Dawley rat at 14 mg/kg, iv; assay type: ADME, organism-based; design: dose 14 mg/kg, route intravenous; settings: in vivo
# [3] = biological target: CYP2C19 (Homo sapiens, UniProt P33261); assay: Inhibition of CYP2C19 using DBF as substrate at 10 uM; assay type: ADME; settings: probe DBF
# [4] = test system: Hepatocyte; assay: Drug metabolism in human hepatocytes assessed as (R)-2-(4-(trifluoromethylsulfonyloxy)phenyl)propanoic acid level at 10 uM after 15 mins; assay type: ADME, cell-based; settings: 0.25 h
# [5] = biological target: T1, C-X-C chemokine receptor type 2 (Homo sapiens) (UniProt P25025); assay: Inhibition of CXCR2 in human polymorphonucleate cells assessed as inhibition of CXCL1-induced chemotaxis at 10^-8 M incubated for 15 mins prior to CXCL1-induction measured after 45 mins
# T1 sequence (whole entry): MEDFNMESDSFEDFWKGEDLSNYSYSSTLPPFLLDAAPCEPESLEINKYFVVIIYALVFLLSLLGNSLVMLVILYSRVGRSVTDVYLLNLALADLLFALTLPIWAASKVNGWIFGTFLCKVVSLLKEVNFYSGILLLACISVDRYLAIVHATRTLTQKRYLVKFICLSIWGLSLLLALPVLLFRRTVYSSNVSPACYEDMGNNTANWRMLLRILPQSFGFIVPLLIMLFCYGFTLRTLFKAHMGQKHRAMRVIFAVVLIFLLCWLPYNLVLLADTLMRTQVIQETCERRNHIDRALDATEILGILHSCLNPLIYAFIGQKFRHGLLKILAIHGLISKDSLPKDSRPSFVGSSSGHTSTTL
# [6] = biological target: CYP2C9 (Homo sapiens, UniProt P11712); assay: Inhibition of CYP2C9 using 7MFC as substrate at 10 uM; assay type: ADME; settings: probe 7MFC
# [7] = test system: Hepatocyte; assay: Drug metabolism in rat hepatocytes assessed as (R)-2-(4-(trifluoromethylsulfonyloxy)phenyl)propanoic acid level at 10 uM after 15 mins; assay type: ADME, cell-based; settings: 0.25 h
# [8] = Chemical stability of the compound assessed as compound remaining at pH 3.5 after 2 hrs; assay type: physicochemical; settings: buffer, read-out: Stability
# [9] = test system: Hepatocyte; assay: Drug metabolism in human hepatocytes assessed as (S)-2-(4-(trifluoromethylsulfonyloxy)phenyl)propanoic acid level at 10 uM after 60 mins; assay type: ADME, cell-based; settings: 1 h
# [10] = test system: Hepatocyte; assay: Drug metabolism in human hepatocytes assessed as (S)-2-(4-(trifluoromethylsulfonyloxy)phenyl)propanoic acid level at 10 uM after 120 mins; assay type: ADME, cell-based; settings: 2 h
# [11] = test system: Hepatocyte; assay: Drug metabolism in human hepatocytes assessed as (S)-2-(4-(trifluoromethylsulfonyloxy)phenyl)propanoic acid level at 10 uM after 15 mins; assay type: ADME, cell-based; settings: 0.25 h
# [12] = test system: Hepatocyte; assay: Drug metabolism in rat hepatocytes assessed as (S)-2-(4-(trifluoromethylsulfonyloxy)phenyl)propanoic acid level at 10 uM after 30 mins; assay type: ADME, cell-based; settings: 0.5 h
# [13] = biological target: T2, CYP1A2 (Homo sapiens, UniProt P05177); assay: Inhibition of CYP1A2 using CEC as substrate at 10 uM; assay type: ADME; settings: probe CEC
# T2 sequence (P05177 whole entry): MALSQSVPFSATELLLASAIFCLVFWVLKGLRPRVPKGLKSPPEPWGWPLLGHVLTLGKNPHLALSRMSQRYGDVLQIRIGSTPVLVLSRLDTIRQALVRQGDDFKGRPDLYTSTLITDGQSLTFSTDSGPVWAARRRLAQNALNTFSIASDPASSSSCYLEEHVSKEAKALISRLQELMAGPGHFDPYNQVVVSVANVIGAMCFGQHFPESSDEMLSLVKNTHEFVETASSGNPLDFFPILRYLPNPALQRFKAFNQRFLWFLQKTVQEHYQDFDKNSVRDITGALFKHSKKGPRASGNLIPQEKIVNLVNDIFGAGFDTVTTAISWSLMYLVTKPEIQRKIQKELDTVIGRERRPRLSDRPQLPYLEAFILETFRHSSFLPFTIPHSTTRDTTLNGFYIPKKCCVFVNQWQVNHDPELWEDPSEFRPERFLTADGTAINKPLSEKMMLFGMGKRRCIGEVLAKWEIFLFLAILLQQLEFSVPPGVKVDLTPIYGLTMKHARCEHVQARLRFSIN
# [14] = test system: Hepatocyte; assay: Drug metabolism in human hepatocytes assessed as (S)-2-(4-(trifluoromethylsulfonyloxy)phenyl)propanoic acid level at 10 uM after 90 mins; assay type: ADME, cell-based; settings: 1.5 h
# [15] = test system: Hepatocyte; assay: Drug metabolism in rat hepatocytes assessed as (R)-2-(4-(trifluoromethylsulfonyloxy)phenyl)propanoic acid level at 10 uM after 120 mins; assay type: ADME, cell-based; settings: 2 h
# [16] = biological target: Voltage-gated inwardly rectifying potassium channel KCNH2 (Homo sapiens, UniProt Q12809); assay: Displacement of [3H]astemizole from human ERG expressed in HEK293 cells at 10 uM for 60 mins by liquid scintillation counting; assay type: cell-based; settings: hek293, 1 h
# [17] = biological target: Interleukin-8 receptors, CXCR1/CXCR2 (Homo sapiens) (UniProt P25025+P25024); assay: Inhibition of CXCR1/2 in human polymorphonucleate cells assessed as inhibition of CXCL8-induced chemotaxis at 10^-8 M incubated for 15 mins prior to CXCL8-induction measured after 45 mins
# [18] = Metabolic stability in rat plasma assessed as compound remaining at 1 uM after 1 hr; assay type: ADME, cell-free; settings: read-out: Stability
# [19] = Dissociation constant, pKa of the compound; assay type: physicochemical
# [20] = biological target: CYP2D6 (Homo sapiens, UniProt P10635); assay: Inhibition of CYP2D6 using AMMC as substrate at 10 uM; assay type: ADME; settings: probe AMMC
# [21] = test system: Hepatocyte; assay: Drug metabolism in human hepatocytes assessed as (R)-2-(4-(trifluoromethylsulfonyloxy)phenyl)propanoic acid level at 10 uM after 120 mins; assay type: ADME, cell-based; settings: 2 h
# [22] = test system: Hepatocyte; assay: Drug metabolism in rat hepatocytes assessed as (R)-2-(4-(trifluoromethylsulfonyloxy)phenyl)propanoic acid level at 10 uM after 30 mins; assay type: ADME, cell-based; settings: 0.5 h
# [23] = test system: Hepatocyte; assay: Drug metabolism in human hepatocytes assessed as (R)-2-(4-(trifluoromethylsulfonyloxy)phenyl)propanoic acid level at 10 uM after 30 mins; assay type: ADME, cell-based; settings: 0.5 h
# [24] = test system: Hepatocyte; assay: Drug metabolism in rat hepatocytes assessed as (S)-2-(4-(trifluoromethylsulfonyloxy)phenyl)propanoic acid level at 10 uM after 90 mins; assay type: ADME, cell-based; settings: 1.5 h
# [25] = Oral bioavailability in Sprague-Dawley rat at 14 mg/kg; assay type: ADME, organism-based; settings: in vivo
# [26] = test system: Hepatocyte; assay: Drug metabolism in rat hepatocytes assessed as (S)-2-(4-(trifluoromethylsulfonyloxy)phenyl)propanoic acid level at 10 uM after 15 mins; assay type: ADME, cell-based; settings: 0.25 h
# [27] = Chemical stability of the compound assessed as compound remaining at pH 9 after 2 hrs; assay type: physicochemical; settings: buffer, read-out: Stability
# [28] = test system: Hepatocyte; assay: Drug metabolism in rat hepatocytes assessed as (S)-2-(4-(trifluoromethylsulfonyloxy)phenyl)propanoic acid level at 10 uM after 60 mins; assay type: ADME, cell-based; settings: 1 h
# [29] = Metabolic stability in rat liver microsomes assessed as compound remaining at 1 uM preincubated for 10 mins measured after 30 mins; assay type: ADME, Microsome; settings: read-out: Stability
# [30] = test system: Hepatocyte; assay: Drug metabolism in human hepatocytes assessed as (S)-2-(4-(trifluoromethylsulfonyloxy)phenyl)propanoic acid level at 10 uM after 30 mins; assay type: ADME, cell-based; settings: 0.5 h
# [31] = Elimination half life in Sprague-Dawley rat at 14 mg/kg, iv; assay type: ADME, organism-based; design: dose 14 mg/kg, route intravenous; settings: in vivo, read-out: beta t1/2 (converted)
# [32] = test system: Hepatocyte; assay: Drug metabolism in human hepatocytes assessed as (R)-2-(4-(trifluoromethylsulfonyloxy)phenyl)propanoic acid level at 10 uM after 90 mins; assay type: ADME, cell-based; settings: 1.5 h
# [33] = test system: Hepatocyte; assay: Drug metabolism in rat hepatocytes assessed as (R)-2-(4-(trifluoromethylsulfonyloxy)phenyl)propanoic acid level at 10 uM after 60 mins; assay type: ADME, cell-based; settings: 1 h
# [34] = test system: Hepatocyte; assay: Drug metabolism in human hepatocytes assessed as (R)-2-(4-(trifluoromethylsulfonyloxy)phenyl)propanoic acid level at 10 uM after 60 mins; assay type: ADME, cell-based; settings: 1 h
# [35] = biological target: CYP3A4 (Homo sapiens, UniProt P08684); assay: Inhibition of CYP3A4 using BFC as substrate at 10 uM; assay type: ADME; settings: probe BFC
# [36] = test system: Hepatocyte; assay: Drug metabolism in rat hepatocytes assessed as (R)-2-(4-(trifluoromethylsulfonyloxy)phenyl)propanoic acid level at 10 uM after 90 mins; assay type: ADME, cell-based; settings: 1.5 h
# Sequence of Voltage-gated inwardly rectifying potassium channel KCNH2 (Q12809 whole entry): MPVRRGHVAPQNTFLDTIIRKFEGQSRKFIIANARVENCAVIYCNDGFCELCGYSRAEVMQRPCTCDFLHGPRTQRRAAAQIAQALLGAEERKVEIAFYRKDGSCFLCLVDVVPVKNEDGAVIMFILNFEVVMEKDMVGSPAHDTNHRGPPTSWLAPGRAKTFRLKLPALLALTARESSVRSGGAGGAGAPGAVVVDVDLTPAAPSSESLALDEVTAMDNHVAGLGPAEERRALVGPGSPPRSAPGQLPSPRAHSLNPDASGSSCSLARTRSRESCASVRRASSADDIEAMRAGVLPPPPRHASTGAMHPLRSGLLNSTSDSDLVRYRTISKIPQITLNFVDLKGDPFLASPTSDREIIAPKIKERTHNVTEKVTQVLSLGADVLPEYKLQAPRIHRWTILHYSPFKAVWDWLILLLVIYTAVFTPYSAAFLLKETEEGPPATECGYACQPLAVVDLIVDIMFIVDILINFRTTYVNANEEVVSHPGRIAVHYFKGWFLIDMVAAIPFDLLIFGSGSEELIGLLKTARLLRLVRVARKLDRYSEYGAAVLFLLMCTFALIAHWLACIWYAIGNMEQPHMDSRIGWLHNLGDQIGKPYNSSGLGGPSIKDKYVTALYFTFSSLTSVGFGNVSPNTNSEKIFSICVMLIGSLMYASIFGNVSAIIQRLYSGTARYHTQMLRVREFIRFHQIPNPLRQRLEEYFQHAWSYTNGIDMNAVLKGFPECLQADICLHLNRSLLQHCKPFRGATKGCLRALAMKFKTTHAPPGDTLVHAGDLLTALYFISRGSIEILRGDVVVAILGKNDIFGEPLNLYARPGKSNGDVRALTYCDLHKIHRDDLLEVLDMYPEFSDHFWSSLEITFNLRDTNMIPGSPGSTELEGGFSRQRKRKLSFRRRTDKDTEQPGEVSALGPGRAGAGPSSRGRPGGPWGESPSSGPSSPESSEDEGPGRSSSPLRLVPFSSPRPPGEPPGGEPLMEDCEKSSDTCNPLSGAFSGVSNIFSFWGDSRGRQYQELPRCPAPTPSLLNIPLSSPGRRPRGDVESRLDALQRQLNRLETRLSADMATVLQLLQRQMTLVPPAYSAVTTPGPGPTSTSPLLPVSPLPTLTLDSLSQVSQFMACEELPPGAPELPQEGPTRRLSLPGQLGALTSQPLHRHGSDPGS
# Sequence of CYP2C9 (P11712 whole entry): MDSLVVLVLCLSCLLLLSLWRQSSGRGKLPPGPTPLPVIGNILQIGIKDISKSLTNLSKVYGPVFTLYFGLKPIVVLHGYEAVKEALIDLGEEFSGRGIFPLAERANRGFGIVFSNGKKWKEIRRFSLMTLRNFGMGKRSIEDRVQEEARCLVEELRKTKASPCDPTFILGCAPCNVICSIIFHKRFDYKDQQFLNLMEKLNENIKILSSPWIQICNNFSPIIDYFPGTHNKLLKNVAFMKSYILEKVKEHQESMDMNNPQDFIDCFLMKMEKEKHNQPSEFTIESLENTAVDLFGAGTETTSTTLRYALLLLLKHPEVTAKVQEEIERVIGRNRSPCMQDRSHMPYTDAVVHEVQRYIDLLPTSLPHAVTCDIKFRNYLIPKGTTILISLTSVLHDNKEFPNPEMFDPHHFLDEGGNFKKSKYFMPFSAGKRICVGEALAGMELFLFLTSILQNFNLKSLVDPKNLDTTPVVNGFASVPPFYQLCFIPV
# Sequence of CYP3A4 (P08684 whole entry): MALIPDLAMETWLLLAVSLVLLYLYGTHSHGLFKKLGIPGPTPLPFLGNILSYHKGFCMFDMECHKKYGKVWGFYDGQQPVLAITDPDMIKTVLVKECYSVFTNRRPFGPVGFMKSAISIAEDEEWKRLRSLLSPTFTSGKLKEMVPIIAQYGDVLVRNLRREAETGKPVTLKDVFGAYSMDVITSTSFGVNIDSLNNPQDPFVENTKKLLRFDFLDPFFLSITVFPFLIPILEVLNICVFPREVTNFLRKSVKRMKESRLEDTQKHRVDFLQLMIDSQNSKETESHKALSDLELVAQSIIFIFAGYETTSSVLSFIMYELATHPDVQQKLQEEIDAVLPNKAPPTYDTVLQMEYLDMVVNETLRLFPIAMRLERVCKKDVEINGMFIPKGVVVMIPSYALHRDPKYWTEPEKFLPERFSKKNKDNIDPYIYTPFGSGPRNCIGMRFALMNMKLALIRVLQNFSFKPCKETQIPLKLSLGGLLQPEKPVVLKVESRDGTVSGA
# Sequence of CYP2C19 (P33261 whole entry): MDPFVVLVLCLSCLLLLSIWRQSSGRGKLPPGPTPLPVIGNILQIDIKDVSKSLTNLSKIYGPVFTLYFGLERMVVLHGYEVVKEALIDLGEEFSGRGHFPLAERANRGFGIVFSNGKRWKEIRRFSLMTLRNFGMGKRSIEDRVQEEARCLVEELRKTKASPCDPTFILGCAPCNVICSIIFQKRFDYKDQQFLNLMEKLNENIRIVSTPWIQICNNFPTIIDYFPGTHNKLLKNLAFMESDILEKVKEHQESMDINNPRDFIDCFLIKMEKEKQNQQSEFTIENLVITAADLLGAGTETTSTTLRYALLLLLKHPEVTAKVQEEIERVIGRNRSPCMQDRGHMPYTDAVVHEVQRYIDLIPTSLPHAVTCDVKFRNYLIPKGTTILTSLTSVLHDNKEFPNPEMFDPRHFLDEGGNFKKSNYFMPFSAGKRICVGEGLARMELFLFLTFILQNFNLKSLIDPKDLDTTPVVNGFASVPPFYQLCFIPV
# Sequence of CYP2D6 (P10635 whole entry): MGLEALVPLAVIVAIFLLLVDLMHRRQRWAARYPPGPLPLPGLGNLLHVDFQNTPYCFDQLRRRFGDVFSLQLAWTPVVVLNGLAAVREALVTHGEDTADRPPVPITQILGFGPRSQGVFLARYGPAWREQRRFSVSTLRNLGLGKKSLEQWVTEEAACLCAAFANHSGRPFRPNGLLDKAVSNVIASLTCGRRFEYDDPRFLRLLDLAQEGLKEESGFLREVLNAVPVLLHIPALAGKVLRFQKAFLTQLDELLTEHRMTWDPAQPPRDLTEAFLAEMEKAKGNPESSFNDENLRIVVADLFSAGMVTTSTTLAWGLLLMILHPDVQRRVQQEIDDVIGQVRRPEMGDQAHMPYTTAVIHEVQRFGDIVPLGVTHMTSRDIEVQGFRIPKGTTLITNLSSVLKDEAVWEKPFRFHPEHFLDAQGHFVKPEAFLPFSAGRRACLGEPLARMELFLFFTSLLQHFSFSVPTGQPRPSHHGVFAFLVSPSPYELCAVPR
compound,measurement,setting,value
C[C@@H](C(=O)NS(C)(=O)=O)c1ccc(OS(=O)(=O)C(F)(F)F)cc1 [LADARIXIN],Drug metabolism,[1],56 ng/mL
same,clearance,[2],0.1 mL/min/kg
same,inhibition at 10 µM,[3],< 5%
same,Drug metabolism,[4],< 1 ng/mL
same,inhibition,[5],68%
same,inhibition at 10 µM,[6],< 5%
same,Drug metabolism,[7],22 ng/mL
same,remaining at 2 h,[8],> 99%
same,Drug metabolism,[9],2 ng/mL
same,Drug metabolism,[10],6 ng/mL
same,Drug metabolism,[11],< 1 ng/mL
same,Drug metabolism,[12],31 ng/mL
same,inhibition at 10 µM,[13],< 5%
same,Drug metabolism,[14],3 ng/mL
same,Drug metabolism,[15],4 ng/mL
same,inhibition (INH),[16],Not Active
same,inhibition,[17],67%
same,"remaining at 1 h, 1 µM",[18],100%
same,pKa,[19],4.4
same,inhibition at 10 µM,[20],< 5%
same,Drug metabolism,[21],30 ng/mL
same,Drug metabolism,[22],5 ng/mL
same,Drug metabolism,[23],3 ng/mL
same,Drug metabolism,[24],54 ng/mL
same,bioavailability,[25],100%
same,Drug metabolism,[26],7 ng/mL
same,remaining at 2 h,[27],30%
same,Drug metabolism,[28],50 ng/mL
same,"remaining at 0.5 h, 1 µM",[29],100%
same,Drug metabolism,[30],< 1 ng/mL
same,half-life,[31],19 h
same,Drug metabolism,[32],20 ng/mL
same,Drug metabolism,[33],3 ng/mL
same,Drug metabolism,[34],15 ng/mL
same,inhibition at 10 µM,[35],< 5%
same,Drug metabolism,[36],5 ng/mL
